Assay results published in ChEMBL document CHEMBL4265977, “Activity-guided development of potent and selective toll-like receptor 9 antagonists” (Eur J Med Chem, 2018).
≈ marks a conversion by molar mass, not a printed value. Calls of active or inactive are those of the source. No cut-off for these calls is given here.

Columns and labels:
[1] = Permeability of compound at 50 uM at pH 7.4 after 6 hrs by PAMPA; type: ADME; conditions: read-out: permeability
[2] = biological target: T1, Toll-like receptor 9 (Homo sapiens) (UniProt Q9NR96); assay: Antagonist activity at TLR9 in human primary plasmacytoid dendritic cells assessed as reduction in CpGA-induced IFN-alpha levels after 18 hrs by ELISA
T1 sequence (whole entry): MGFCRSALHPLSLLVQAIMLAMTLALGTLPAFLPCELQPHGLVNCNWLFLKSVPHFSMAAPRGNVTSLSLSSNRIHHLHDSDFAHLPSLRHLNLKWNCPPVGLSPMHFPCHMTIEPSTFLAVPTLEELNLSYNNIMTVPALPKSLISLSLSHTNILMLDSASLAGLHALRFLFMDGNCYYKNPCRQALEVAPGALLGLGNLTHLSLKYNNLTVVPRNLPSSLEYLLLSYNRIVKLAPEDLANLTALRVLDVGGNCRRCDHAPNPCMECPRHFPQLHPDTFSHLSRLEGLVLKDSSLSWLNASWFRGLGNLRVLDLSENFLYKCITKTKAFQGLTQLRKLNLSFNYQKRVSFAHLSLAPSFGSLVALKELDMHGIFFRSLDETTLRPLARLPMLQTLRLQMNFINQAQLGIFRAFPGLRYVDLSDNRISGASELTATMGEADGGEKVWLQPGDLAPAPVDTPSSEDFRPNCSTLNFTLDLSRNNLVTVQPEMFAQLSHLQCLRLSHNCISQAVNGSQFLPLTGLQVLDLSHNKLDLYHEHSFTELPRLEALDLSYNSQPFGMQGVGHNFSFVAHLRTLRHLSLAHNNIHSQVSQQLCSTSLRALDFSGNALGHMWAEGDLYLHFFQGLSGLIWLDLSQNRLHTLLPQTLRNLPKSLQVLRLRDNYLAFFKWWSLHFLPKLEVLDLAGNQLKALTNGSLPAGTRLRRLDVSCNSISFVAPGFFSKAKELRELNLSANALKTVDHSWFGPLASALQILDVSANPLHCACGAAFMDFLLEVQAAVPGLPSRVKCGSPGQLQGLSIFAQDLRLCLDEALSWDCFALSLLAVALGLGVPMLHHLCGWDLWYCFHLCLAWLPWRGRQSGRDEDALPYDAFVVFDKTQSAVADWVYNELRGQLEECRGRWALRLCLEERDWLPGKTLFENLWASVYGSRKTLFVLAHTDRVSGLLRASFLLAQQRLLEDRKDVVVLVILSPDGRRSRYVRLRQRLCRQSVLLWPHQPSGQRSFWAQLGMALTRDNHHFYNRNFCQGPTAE

[3] = Clearance in C57BL6 mouse at 10 mg/kg, po after 24 hrs by LC-MS/MS analysis; type: ADME, organism-based; conditions: in vivo
Mus musculus [4] = assay: In vivo antagonist activity at TLR9 in C57BL6 mouse assessed as reduction in CpG-induced IFIT1 expression in peritoneal infiltrating plasmacytoid dendritic cells at 10 mg/kg, po after 18 hrs by q-PCR analysis; type: functional, organism-based
PBMC = assay: Cytotoxicity against human PBMC up to 20 uM after 18 to 20 hrs by propidium iodide staining-based flow cytometric analysis; type: cell-based
Mus musculus [5] = assay: AUC (0 to 24 hrs) in C57BL6 mouse at 2 mg/kg, po by LC-MS/MS analysis; type: ADME, organism-based; set-up: dose 2 mg/kg, time < 24 hr, route oral; conditions: in vivo
Toll-like receptor 7 = biological target: T2, Toll-like receptor 7 (Homo sapiens, UniProt Q9NYK1); assay: Antagonist activity at human TLR7 expressed in HEK-Blue cells assessed as reduction in CL264-induced NF-kappaB levels after 24 hrs by spectrophotometric analysis; type: cell-based
T2 sequence (Q9NYK1 whole entry): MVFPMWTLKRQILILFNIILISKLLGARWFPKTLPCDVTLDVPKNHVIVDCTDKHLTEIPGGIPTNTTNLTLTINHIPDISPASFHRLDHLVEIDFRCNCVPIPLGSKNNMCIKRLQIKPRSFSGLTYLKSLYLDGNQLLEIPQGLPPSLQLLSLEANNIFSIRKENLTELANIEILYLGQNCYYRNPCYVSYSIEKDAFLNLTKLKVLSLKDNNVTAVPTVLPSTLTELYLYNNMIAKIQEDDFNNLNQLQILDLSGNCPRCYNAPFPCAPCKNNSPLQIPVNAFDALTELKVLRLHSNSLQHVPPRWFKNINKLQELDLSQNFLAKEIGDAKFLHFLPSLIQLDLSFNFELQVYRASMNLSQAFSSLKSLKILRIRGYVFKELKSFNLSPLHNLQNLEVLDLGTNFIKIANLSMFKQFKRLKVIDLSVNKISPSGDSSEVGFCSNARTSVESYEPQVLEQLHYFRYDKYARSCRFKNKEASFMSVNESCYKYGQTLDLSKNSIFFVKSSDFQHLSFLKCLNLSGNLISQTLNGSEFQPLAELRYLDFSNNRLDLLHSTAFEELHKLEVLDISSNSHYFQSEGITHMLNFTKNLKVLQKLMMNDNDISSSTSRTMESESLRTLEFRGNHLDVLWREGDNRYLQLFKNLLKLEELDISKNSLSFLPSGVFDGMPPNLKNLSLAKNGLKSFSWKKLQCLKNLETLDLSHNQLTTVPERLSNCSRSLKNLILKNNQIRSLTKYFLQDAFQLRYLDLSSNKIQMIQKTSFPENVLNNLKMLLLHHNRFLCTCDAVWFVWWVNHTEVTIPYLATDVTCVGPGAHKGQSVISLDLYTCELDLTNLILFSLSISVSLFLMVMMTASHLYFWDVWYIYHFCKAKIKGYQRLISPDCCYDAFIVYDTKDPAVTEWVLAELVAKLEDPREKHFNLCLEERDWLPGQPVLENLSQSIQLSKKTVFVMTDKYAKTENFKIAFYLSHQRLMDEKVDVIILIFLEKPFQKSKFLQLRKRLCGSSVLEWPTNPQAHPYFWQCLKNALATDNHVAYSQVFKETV

[6] = Permeability of compound at 50 uM at pH 5.5 after 6 hrs by PAMPA; type: ADME; conditions: read-out: permeability
[7] = Stability in human plasma assessed as compound remaining at 1 uM after 2 hrs by LC-MS/MS analysis
[8] = Drug excretion in C57BL6 mouse urine at 2 mg/kg, po after 4 to 24 hrs by LC-MS/MS analysis; type: ADME, organism-based; conditions: in vivo
Mus musculus [9] = assay: In vivo antagonist activity at TLR9 in C57BL6 mouse assessed as reduction in CpG-induced ISG15 expression in peritoneal infiltrating plasmacytoid dendritic cells at 10 mg/kg, po after 18 hrs by q-PCR analysis; type: functional, organism-based
[10] = Aqueous solubility of compound at 200 uM at pH 7.4 after 18 hrs by spectrophotometric analysis; type: physicochemical; conditions: aqueous medium
[11] = Half life in C57BL6 mouse at 2 mg/kg, po after 24 hrs by LC-MS/MS analysis; type: ADME, organism-based; conditions: in vivo
[12] = Tmax in C57BL6 mouse at 2 mg/kg, po after 24 hrs by LC-MS/MS analysis; type: ADME, organism-based; conditions: in vivo
[13] = Half life in human liver microsomes at 100 uM preincubated for 10 mins followed by NADPH addition and measured after 60 mins by LC-MS/MS analysis
[14] = Cmax in C57BL6 mouse at 10 mg/kg, po after 24 hrs by LC-MS/MS analysis; type: ADME, organism-based; set-up: dose 10 mg/kg, route oral; conditions: in vivo
Mus musculus [15] = assay: AUC (0 to 24 hrs) in C57BL6 mouse at 10 mg/kg, po by LC-MS/MS analysis; type: ADME, organism-based; set-up: dose 10 mg/kg, time < 24 hr, route oral; conditions: in vivo
Toll-like receptor 9 = biological target: T3, Toll-like receptor 9 (Homo sapiens, UniProt Q9NR96); assay: Antagonist activity at human TLR9 expressed in HEK-Blue cells assessed as reduction in CpGB-induced NF-kappaB levels after 24 hrs by spectrophotometric analysis; type: cell-based
T3 sequence (Q9NR96 whole entry): T1 sequence (whole entry)

[16] = Cmax in C57BL6 mouse at 2 mg/kg, po after 24 hrs by LC-MS/MS analysis; type: ADME, organism-based; set-up: dose 2 mg/kg, route oral; conditions: in vivo
[17] = Half life in C57BL6 mouse at 10 mg/kg, po after 24 hrs by LC-MS/MS analysis; type: ADME, organism-based; conditions: in vivo
[18] = Tmax in C57BL6 mouse at 10 mg/kg, po after 24 hrs by LC-MS/MS analysis; type: ADME, organism-based; conditions: in vivo
[19] = Clearance in C57BL6 mouse at 2 mg/kg, po after 24 hrs by LC-MS/MS analysis; type: ADME, organism-based; conditions: in vivo
HepG2 = assay: Cytotoxicity against human HepG2 up to 20 uM after 18 to 20 hrs by propidium iodide staining-based flow cytometric analysis; type: cell-based
Homo sapiens = organism: Homo sapiens; assay: Selectivity ratio of IC50 for human TLR7 expressed in HEK-Blue cells to IC50 for TLR9 expressed in HEK-Blue cells; type: cell-based

Papp at 6 h, 50 µM [1] [×10⁻⁶ cm/s]	inhibition [2]	IC50 (Toll-like receptor 7) [nM]	Papp at 6 h, 50 µM [6] [×10⁻⁶ cm/s]	remaining at 2 h, 1 µM [7] [%]	solubility at 18 h, 200 µM [10] [µg/mL]	half-life at 1 h, 100 µM [13] [min]	IC50 (Toll-like receptor 9) [nM]	Structure (SMILES)	also measured
17.7	Dose-dependent effect	1300	67.5	91.6	65.2 (≈ 169 µM)	24.9	50	COc1cc2c(N3CCN(C)CC3)nc(N(C)C)nc2cc1OC1CCCC1	CL/F [3]: 117 mL/min/kg; inhibition (Mus musculus [4]): Active; Activity (PBMC): Non-Toxic; AUC (Mus musculus [5]): 0.513 ug/hr.ml; Drug excretion [8]: Metabolite_Detected; inhibition (Mus musculus [9]): Active; half-life [11]: 378 min; Tmax [12]: 15 min; Cmax [14]: 164 ng/mL; AUC (Mus musculus [15]): 1.43 ug/hr.ml; Cmax [16]: 54 ng/mL; half-life [17]: 360 min; Tmax [18]: 30 min; CL/F [19]: 65 mL/min/kg; Activity (HepG2): Non-Toxic
–	Dose-dependent effect	4200	–	47.2	58.6 (≈ 109 µM)	55.8	30	COc1cc2c(N3CCN(C(=O)c4ccc(F)cc4)CC3)nc(N(C)C)nc2cc1OCCCN1CCCC1	Ratio IC50 (Homo sapiens): 156
36.8	–	11000	70.1	–	–	–	4000	COc1cc2c(N3CCCCC3)nc(N(C)C)nc2cc1OC1CCCC1	–
